Results taken from patent US10021901B2, “Antimicrobial mixture of aldehydes, organic acids and fatty acid esters” (ANITOX CORPORATION, priority 2011, dated 2018).
In brackets after ≈: the same amount, converted by molar mass. Like-named read-outs stand apart in the source and are kept apart here.

Assays:
[1] = system: Salmonella typhimurium (ATTC:14028); test: Organic acid esters against Salmonella typhimurium in test tubes (Example 1); format: cell-based; conditions: for killing at 0.01 % / killing at 0.05 %: Salmonella enterica, TYPHIMURIUM, read-out: Reduction (% Reduction) of Salmonella typhimurium in vitro
Description: Methyl and ethyl esters of organic acids were added to test tubes at concentrations of 0.01% and 0.05%. Tubes were vortexed for 10 seconds to uniformly mix the solution. A suspension of Salmonella typhimurium (ATTC:14028) was added to each test tube to achieve a final concentration of 10^4 cfu/ml. The solutions were vortexed, incubated at room temperature for 24 hours and plated on XLT-4 agar. Plates were incubated for 48 hours at 37° C. before enumerating colonies.

M. gypseum = conditions: cited from earlier work
[2] = system: yeast (10^5 CFU/bottle) in beverages; conditions: cited from earlier work
[3] = system: A. flavus, P. notatum, A. alternate, F. oxysporum, Cladosporium spp., B. subtilis and A. tumerfaciens; conditions: cited from earlier work
[4] = system: Helicobacter pylori and S. cholerasuis; conditions: Kubo 1999; Kubo and Fujita 2001; cited from earlier work
E. coli = conditions: vapour; cited from earlier work
Penicillium expansum = conditions: blue mold; cited from earlier work
[5] = system: apricots, peaches and nectarines; conditions: cited from earlier work
Phoma mycelium = conditions: cited from earlier work
P. syringae pathovars = conditions: vapour; cited from earlier work
[6] = system: B. cereus, S. typhimurium, V. parahaemolyticus, L. monocytogenes, S. aureus and E. coli O157:H7; conditions: cited from earlier work
[7] = system: Staphylococcus aureus, E. coli and Salmonella typhimurium; conditions: cited from earlier work
[8] = Ethyl Ester, 0.01% Dilution, 24 hours room temperature, compared to control
[9] = Ethyl Ester, 0.05% Dilution, 24 hours room temperature, compared to control
[10] = Methyl Ester, 0.01% Dilution, 24 hours room temperature, compared to control
[11] = Methyl Ester, 0.05% Dilution, 24 hours room temperature, compared to control

CCCCCCCCCCCCCC(=O)OCC
Reduction (% Reduction) of Salmonella typhimurium in vitro [1, 8]: 12%
Reduction (% Reduction) of Salmonella typhimurium in vitro [1, 9]: 8%

CCCCCCCCCCCCCC(=O)OC
Reduction (% Reduction) of Salmonella typhimurium in vitro [1, 10]: 43%
Reduction (% Reduction) of Salmonella typhimurium in vitro [1, 11]: 49%

CCOC(C)=O [Acetic acid Ethyl Ester]
killing at 0.01 % [1, 8]: 0%
killing at 0.05 % [1, 9]: 0%

COC(C)=O [Acetic acid Methyl Ester]
killing at 0.01 % [1, 10]: 0%
killing at 0.05 % [1, 11]: 29%

CCOC(=O)c1ccccc1 [Benzoic acid Ethyl Ester, Ethyl benzoate]
killing at 0.01 % ([1]; 24 h): 100%
killing at 0.05 % ([1]; 24 h): 100%

COC(=O)c1ccccc1 [Benzoic acid Methyl Ester, Methyl benzoate]
killing at 0.01 % ([1]; 24 h): 34%
killing at 0.05 % ([1]; 24 h): 100%

CCCC(=O)OCC [Butyric acid Ethyl Ester, Ethyl butyrate]
killing at 0.01 % [1, 8]: 28%
killing at 0.05 % [1, 9]: 100%

CCCC(=O)OC [Butyric acid Methyl Ester]
killing at 0.01 % ([1]; 24 h): 0%
killing at 0.05 % ([1]; 24 h): 28%

CCCCCCCCCC(=O)OCC [Capric (decanoic) acid Ethyl Ester]
Reduction (% Reduction) of Salmonella typhimurium in vitro [1, 8]: 0%
Reduction (% Reduction) of Salmonella typhimurium in vitro [1, 9]: 0%

CCCCCCCCCC(=O)OC [Capric (decanoic) acid Methyl Ester]
Reduction (% Reduction) of Salmonella typhimurium in vitro [1, 10]: 8%
Reduction (% Reduction) of Salmonella typhimurium in vitro [1, 11]: 0%

CCCCCC(=O)OCC [Caproic (hexanoic) acid Ethyl Ester, Ethyl hexanoate]
killing at 0.01 % [1, 8]: 100%
killing at 0.05 % [1, 9]: 100%

CCCCCC(=O)OC [Caproic (hexanoic) acid Methyl Ester, Methyl hexanoate]
killing at 0.01 % [1, 10]: 99%
killing at 0.05 % [1, 11]: 100%

CCCCCCCC(=O)OCC [Caprylic (octanoic) acid Ethyl Ester]
Reduction (% Reduction) of Salmonella typhimurium in vitro [1, 8]: 66%
Reduction (% Reduction) of Salmonella typhimurium in vitro [1, 9]: 65%

CCCCCCCC(=O)OC [Caprylic (octanoic) acid Methyl Ester, Methyl octanoate]
killing at 0.01 % [1, 10]: 94%
killing at 0.05 % [1, 11]: 94%

COC=O [Formic acid Methyl Ester]
killing at 0.01 % [1, 10]: 0%
killing at 0.05 % [1, 11]: 5%

CC(=O)OCCC(C)C [Isoamyl acetate]
Effectiveness against Salmonella in words ([1]; 0.01% and 0.05%): bactericidal activity
killing at 0.01 % ([1]; isoamyl acetate itself, 0.01% Dilution, 24 hours): 44%
killing at 0.05 % ([1]; isoamyl acetate itself, 0.05% Dilution, 24 hours): 100%

COC(=O)C(C)C [Isobutyric acid Methyl Ester]
killing at 0.01 % [1, 10]: 3%
killing at 0.05 % [1, 11]: 41%

CCOC(=O)CC(C)C [Isovaleric acid Ethyl Ester]
killing at 0.01 % [1, 8]: 61%
killing at 0.05 % [1, 9]: 100%

CCCCCCCCCCCC(=O)OCC [Lauric (dodecanoic) acid Ethyl Ester]
Reduction (% Reduction) of Salmonella typhimurium in vitro [1, 8]: 0%
Reduction (% Reduction) of Salmonella typhimurium in vitro [1, 9]: 0%

CCCCCCCCCCCC(=O)OC [Lauric (dodecanoic) acid Methyl Ester, Methyl laurate]
killing at 0.01 % [1, 10]: 1%
killing at 0.05 % [1, 11]: 0%

CCOC(=O)CCC(C)=O [Levulinic acid Ethyl Ester]
killing at 0.01 % [1, 8]: 0%
killing at 0.05 % [1, 9]: 8%

COC(=O)CCC(C)=O [Levulinic acid Methyl Ester]
killing at 0.01 % [1, 10]: 0%
killing at 0.05 % [1, 11]: 12%

CCCCC/C=C\C/C=C\CCCCCCCC(=O)OCC [Linoleic acid Ethyl Ester]
killing at 0.01 % [1, 8]: 0%
killing at 0.05 % [1, 9]: 0%

CCCCC/C=C\C/C=C\CCCCCCCC(=O)OC [Linoleic acid Methyl Ester, methyl linoleate]
killing at 0.01 % [1, 10]: 14%
killing at 0.05 % [1, 11]: 0%

CCOC(=O)CC(=O)O [Malonic acid Ethyl Ester]
killing at 0.01 % [1, 8]: 36%
killing at 0.05 % [1, 9]: 57%

COC(=O)CC(=O)O [Malonic acid Methyl Ester]
killing at 0.01 % [1, 10]: 13%
killing at 0.05 % [1, 11]: 9%

CCOC(=O)CC [Propionic acid Ethyl Ester]
killing at 0.01 % [1, 8]: 0%
killing at 0.05 % [1, 9]: 40%

CCC(=O)OC [Propionic acid Methyl Ester]
killing at 0.01 % ([1]; 24 h): 9%
killing at 0.05 % ([1]; 24 h): 19%

CCCCC(=O)OCC [Valeric (pentanoic) acid Ethyl Ester, Ethyl pentanoate]
killing at 0.01 % ([1]; 24 h): 93%
killing at 0.05 % ([1]; 24 h): 100%

CCCCC(=O)OC [Valeric (pentanoic) acid Methyl Ester, Methyl pentanoate]
killing at 0.01 % ([1]; 24 h): 10%
killing at 0.05 % ([1]; 24 h): 100%

CCCCCCCCCC(=O)O [capric acid, reference compound]
minimum inhibitory concentration (MIC) (M. gypseum; liquid media): 75 µg/mL (≈ 435 µM)
minimum inhibitory concentration (MIC) (M. gypseum; solid media): 20 µg/mL (≈ 116 µM)

CC(C)=CCCC(C)=CC=O [citral, reference compound]
equivalent concentration for control of yeast ([2]; equivalent to 25 ppm trans-2-hexenal and thermal treatment): 100-120 ppm

CCCCCCCCC(=O)O [nonanoic acid]
minimum inhibitory concentration (MIC) (M. gypseum; liquid media): 50 µg/mL (≈ 316 µM)
minimum inhibitory concentration (MIC) (M. gypseum; solid media): 40 µg/mL (≈ 253 µM)

CCC/C=C/C=O [trans-2-hexenal]
concentration that completely inhibited growth [3]: 8 ng/l air
concentration necessary to control microorganisms ([2]; beverages not thermally treated): 35 ppm
concentration for control of yeast ([2]; with thermal treatment (56° C. for 20 min), equivalent to citral): 25 ppm
minimum biocidal activity [4]: 800 µg/mL
minimum inhibitory activity [4]: 400 µg/mL
concentration that completely inhibited proliferation (E. coli): 930 micrograms/L of air
concentration effective on controlling Penicillium expansum (Penicillium expansum): 12.5 μl/l
phytotoxicity ([5]; apricots): not phytotoxic
phytotoxic concentration ([5]; peaches and nectarines): 40 μl/l
concentration effective on inhibiting growth (Phoma mycelium): 250 µg/mL
concentration that completely inhibited proliferation (P. syringae pathovars): 570 μg/L of air
effective concentration [6]: 247 mg/L

CC/C=C/CC=O [trans-3-hexenal]
level effective in controlling bacteria [7]: 3 to 30 µg/mL
